According to publication PMC8156151 (The European Respiratory Journal, 2021):

System: PAI-1
Experiment: Plasma biomarker PAI-1
Format: in vivo, human
Conditions: for PAI-1 raw data, Mean (SD) / PAI-1 least square means % baseline±SEM: IPF patients
Procedure: All patients, investigators, sites and study sponsor personnel were blinded to the study group assignments throughout the study. Patients underwent study-specific assessments on days 2, 3, 7, 14 and 15, and a post-study assessment was carried out 26–30 days after the last day of the study period. Assessments included vital signs (supine blood pressure, pulse, oxygen saturation, oral temperature and respiratory rate), spirometry, 12-lead ECG, physical examination, laboratory safety screen (haematology, biochemistry, urinalysis and urinary drugs of abuse screen) and blood sampling for PK measurements. All adverse events and concomitant medications were recorded from the time of the screening visit until the post-study follow-up visit. BAL was performed at day −1 (24 h before the first dose) and at day 14 (2 h after the last dose). The BAL procedure was performed as per international guidelines. Briefly, 240 mL of 0.9% saline at room temperature was instilled in 40 mL aliquots into the right middle lobe and aspirated by suction after each aliquot.
BAL cells were separated from fluid by centrifugation, and cells were collected, stained with antibodies (supplementary material) and then fixed before analysis using a LSR Fortessa flow cytometer (Becton Dickinson, Franklin Lakes, NJ, USA). Data were analysed using FlowJo software (Tree Star, Ashland, OR, USA). Macrophages were identified as having high side scatter properties and human leukocyte antigen-DR positivity. Gal-3 expression (mean fluorescence intensity) was determined from the macrophage gate (supplementary figures S1 and S2). […] Samples were analysed by magnetic Luminex assay (R&D Systems, Minneapolis, MN, USA) or ELISA.
For part 2 of the study, placebos were combined from the three dose-specific cohorts into a pooled control group (n=9). For alveolar macrophage Gal-3 expression and the plasma biomarkers, ANCOVA was performed for percentage of baseline ((day 14/day 1)×100). The ANCOVA model included effects for treatment group and baseline (day 1) value. […] An additional analysis including dose as a continuous covariate was also performed. The Pearson correlation coefficient (r) and associated p-value were calculated for percentage of baseline and day 14 values between plasma biomarkers and alveolar macrophage Gal-3 expression. […] The analysis is exploratory and there was no pre-planned adjustment for multiple testing; the study was not powered for this. Alveolar macrophage Gal-3 expression was considered the primary exploratory analysis with the pre-selected biomarkers secondary. A Bonferroni correction for multiple testing of the secondary end-points comparing the 10 mg group with placebo gives a critical value of 0.0063. Data are presented as the difference in least square means with 95% confidence interval and p-value unless otherwise stated. All analyses were performed using SAS version 9.4 (SAS Institute, Cary, NC, USA). […]

## OC[C@H]1O[C@@H](S[C@@H]2O[C@H](CO)[C@H](O)[C@H](n3cc(-c4cccc(F)c4)nn3)[C@H]2O)[C@H](O)[C@@H](n2cc(-c3cccc(F)c3)nn2)[C@H]1O [TD139]
10 mg vs placebo, ANCOVA
  PAI-1 difference in least square means % baseline (95% CI): −151.8 (−265.3– −38.2) % baseline
Day 14, 0.3 mg
  PAI-1 raw data, Mean (SD): 45736.7 (29863.26) pg/ml
Day 14, 3 mg
  PAI-1 raw data, Mean (SD): 45744.4 (44222.1) pg/ml
Day 14, 10 mg
  PAI-1 raw data, Mean (SD): 23122.2 (12659.84) pg/ml
Day 14, 0.3 mg once daily
  PAI-1 least square means % baseline±SEM: 84.6±48.8 % baseline
Day 14, 3 mg once daily
  PAI-1 least square means % baseline±SEM: 92.4±44.5 % baseline
Day 14, 10 mg once daily
  PAI-1 least square means % baseline±SEM: 45.8±43.7 % baseline
